From ChEMBL document CHEMBL4602612, “Design, synthesis and biological evaluation of mogrol derivatives as a novel class of AMPKα2β1γ1 activators” (Bioorg Med Chem Lett, 2020)

target: AMPK alpha2/beta1/gamma1 (Homo sapiens, UniProt P54619+P54646+Q9Y478); assay: Allosteric activation of AMPK alpha2/beta1/gamma1 in human HepG2 cells by scintillation proximity assay; format: cell-based
Sequence (P54646 whole entry): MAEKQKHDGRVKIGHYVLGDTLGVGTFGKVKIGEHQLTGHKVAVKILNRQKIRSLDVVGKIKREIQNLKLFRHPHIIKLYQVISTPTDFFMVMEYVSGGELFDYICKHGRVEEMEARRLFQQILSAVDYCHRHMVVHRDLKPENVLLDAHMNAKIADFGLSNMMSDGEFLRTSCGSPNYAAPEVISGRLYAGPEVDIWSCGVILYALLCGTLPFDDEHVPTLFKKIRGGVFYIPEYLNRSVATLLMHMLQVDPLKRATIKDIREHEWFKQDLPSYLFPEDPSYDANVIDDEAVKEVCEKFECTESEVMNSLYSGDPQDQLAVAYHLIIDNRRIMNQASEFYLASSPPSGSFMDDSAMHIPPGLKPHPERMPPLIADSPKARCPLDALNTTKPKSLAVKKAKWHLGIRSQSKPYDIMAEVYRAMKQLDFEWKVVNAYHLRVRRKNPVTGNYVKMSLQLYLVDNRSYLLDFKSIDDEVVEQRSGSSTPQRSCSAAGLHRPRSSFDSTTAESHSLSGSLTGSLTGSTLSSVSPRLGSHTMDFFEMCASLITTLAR
Sequence (P54619 whole entry): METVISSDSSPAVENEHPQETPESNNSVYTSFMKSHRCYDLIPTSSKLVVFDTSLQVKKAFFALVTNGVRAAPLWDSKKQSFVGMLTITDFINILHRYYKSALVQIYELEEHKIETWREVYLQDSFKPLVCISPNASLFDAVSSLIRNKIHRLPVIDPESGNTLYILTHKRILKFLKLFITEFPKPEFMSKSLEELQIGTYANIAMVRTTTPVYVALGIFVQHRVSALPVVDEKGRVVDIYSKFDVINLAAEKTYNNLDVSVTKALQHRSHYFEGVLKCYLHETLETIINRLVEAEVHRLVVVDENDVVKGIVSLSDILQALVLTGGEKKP
Sequence (Q9Y478 whole entry): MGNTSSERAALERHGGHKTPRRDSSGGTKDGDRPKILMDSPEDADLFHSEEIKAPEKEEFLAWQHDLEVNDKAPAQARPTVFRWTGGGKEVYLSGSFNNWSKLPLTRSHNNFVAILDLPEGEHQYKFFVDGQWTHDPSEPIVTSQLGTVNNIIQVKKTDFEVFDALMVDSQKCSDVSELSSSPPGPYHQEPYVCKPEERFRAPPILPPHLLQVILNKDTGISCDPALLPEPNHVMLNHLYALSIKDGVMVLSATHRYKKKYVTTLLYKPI

SMILES | EC50 [nM]
C[C@H](CCCNCc1ccccc1)[C@H]1CC[C@@]2(C)[C@@H]3CC=C4[C@@H](CC[C@H](O)C4(C)C)[C@]3(C)[C@H](O)C[C@]12C | 1500
COc1ccc(CNCCC[C@@H](C)[C@H]2CC[C@@]3(C)[C@@H]4CC=C5[C@@H](CC[C@H](O)C5(C)C)[C@]4(C)[C@H](O)C[C@]23C)cc1OC | 200
COc1ccc(NCCC[C@@H](C)[C@H]2CC[C@@]3(C)[C@@H]4CC=C5[C@@H](CC[C@H](O)C5(C)C)[C@]4(C)[C@H](O)C[C@]23C)cc1 | 4700
C[C@H](CCCNCc1ccncc1)[C@H]1CC[C@@]2(C)[C@@H]3CC=C4[C@@H](CC[C@H](O)C4(C)C)[C@]3(C)[C@H](O)C[C@]12C | 500
Nc1ncnc2c1ncn2[C@@H]1O[C@H](COP(=O)(O)O)[C@@H](O)[C@H]1O [ADENOSINE PHOSPHATE] | 1400
C[C@H](CCCNCCc1ccccc1)[C@H]1CC[C@@]2(C)[C@@H]3CC=C4[C@@H](CC[C@H](O)C4(C)C)[C@]3(C)[C@H](O)C[C@]12C | 2000
C[C@H](CCCNCCCn1ccnc1)[C@H]1CC[C@@]2(C)[C@@H]3CC=C4[C@@H](CC[C@H](O)C4(C)C)[C@]3(C)[C@H](O)C[C@]12C | 3500
C[C@H](CCCNCc1ccccn1)[C@H]1CC[C@@]2(C)[C@@H]3CC=C4[C@@H](CC[C@H](O)C4(C)C)[C@]3(C)[C@H](O)C[C@]12C | 1600
C[C@H](CCCNCc1ccc(F)cc1)[C@H]1CC[C@@]2(C)[C@@H]3CC=C4[C@@H](CC[C@H](O)C4(C)C)[C@]3(C)[C@H](O)C[C@]12C | 700
C[C@H](CCCNCc1ccc(Cl)cc1)[C@H]1CC[C@@]2(C)[C@@H]3CC=C4[C@@H](CC[C@H](O)C4(C)C)[C@]3(C)[C@H](O)C[C@]12C | 600
C[C@H](CCCNCCN1CCNCC1)[C@H]1CC[C@@]2(C)[C@@H]3CC=C4[C@@H](CC[C@H](O)C4(C)C)[C@]3(C)[C@H](O)C[C@]12C | 500
COc1ccc(CCNCCC[C@@H](C)[C@H]2CC[C@@]3(C)[C@@H]4CC=C5[C@@H](CC[C@H](O)C5(C)C)[C@]4(C)[C@H](O)C[C@]23C)cc1OC | 500
C[C@H](CC[C@@H](O)C(C)(C)O)[C@H]1CC[C@@]2(C)[C@@H]3CC=C4[C@@H](CC[C@H](O)C4(C)C)[C@]3(C)[C@H](O)C[C@]12C [MOGROL] | 3000
C[C@H](CCCNCCc1ccc([N+](=O)[O-])cc1)[C@H]1CC[C@@]2(C)[C@@H]3CC=C4[C@@H](CC[C@H](O)C4(C)C)[C@]3(C)[C@H](O)C[C@]12C | 1700
C[C@H](CCCNCc1cccnc1)[C@H]1CC[C@@]2(C)[C@@H]3CC=C4[C@@H](CC[C@H](O)C4(C)C)[C@]3(C)[C@H](O)C[C@]12C | 700

Second part, the compound after the results:

EC50 [nM] | SMILES
4100 | C[C@H](CCCNC1CC1)[C@H]1CC[C@@]2(C)[C@@H]3CC=C4[C@@H](CC[C@H](O)C4(C)C)[C@]3(C)[C@H](O)C[C@]12C
1400 | C[C@H](CCCNCCCO)[C@H]1CC[C@@]2(C)[C@@H]3CC=C4[C@@H](CC[C@H](O)C4(C)C)[C@]3(C)[C@H](O)C[C@]12C
7400 | CNCCC[C@@H](C)[C@H]1CC[C@@]2(C)[C@@H]3CC=C4[C@@H](CC[C@H](O)C4(C)C)[C@]3(C)[C@H](O)C[C@]12C
150 | CCCNCCC[C@@H](C)[C@H]1CC[C@@]2(C)[C@@H]3CC=C4[C@@H](CC[C@H](O)C4(C)C)[C@]3(C)[C@H](O)C[C@]12C
140 | CC(C)NCCC[C@@H](C)[C@H]1CC[C@@]2(C)[C@@H]3CC=C4[C@@H](CC[C@H](O)C4(C)C)[C@]3(C)[C@H](O)C[C@]12C
5000 | CCNCCC[C@@H](C)[C@H]1CC[C@@]2(C)[C@@H]3CC=C4[C@@H](CC[C@H](O)C4(C)C)[C@]3(C)[C@H](O)C[C@]12C
1700 | C[C@H](NCCC[C@@H](C)[C@H]1CC[C@@]2(C)[C@@H]3CC=C4[C@@H](CC[C@H](O)C4(C)C)[C@]3(C)[C@H](O)C[C@]12C)c1ccccc1
1400 | C[C@H](CCCNC(C)(C)C)[C@H]1CC[C@@]2(C)[C@@H]3CC=C4[C@@H](CC[C@H](O)C4(C)C)[C@]3(C)[C@H](O)C[C@]12C

target: AMPK alpha2/beta1/gamma1 (Homo sapiens) (UniProt P54646+P54619+Q9Y478); assay: Potency index, ratio of mogrol EC50 to test compound EC50 for allosteric activation of AMPK alpha2/beta1/gamma1 in human HepG2 cells by scintillation proximity assay; format: cell-based
Sequence (P54619 whole entry partner): as the sequence (P54619 whole entry) above
Sequence (P54646 whole entry): as the sequence (P54646 whole entry) above
Sequence (Q9Y478 2-270 partner limits assumed): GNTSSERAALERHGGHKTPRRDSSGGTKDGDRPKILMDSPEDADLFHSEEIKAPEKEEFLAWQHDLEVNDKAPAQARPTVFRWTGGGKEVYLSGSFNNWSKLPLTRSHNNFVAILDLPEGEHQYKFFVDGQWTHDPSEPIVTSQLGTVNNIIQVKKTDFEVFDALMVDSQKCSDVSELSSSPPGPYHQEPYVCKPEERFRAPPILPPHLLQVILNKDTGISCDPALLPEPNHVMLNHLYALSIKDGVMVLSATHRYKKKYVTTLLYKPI

Ratio EC50 | SMILES
20 | CCCNCCC[C@@H](C)[C@H]1CC[C@@]2(C)[C@@H]3CC=C4[C@@H](CC[C@H](O)C4(C)C)[C@]3(C)[C@H](O)C[C@]12C
20 | CC(C)NCCC[C@@H](C)[C@H]1CC[C@@]2(C)[C@@H]3CC=C4[C@@H](CC[C@H](O)C4(C)C)[C@]3(C)[C@H](O)C[C@]12C
